What all share (format): functional
Parameters in all cases: scale not given: the % may be the effect or the level left

In experiment [1] the test system is Phytophthora infestans. Description: Fungicidal activity against Phytophthora infestans infected tomato assessed as reduction in tomato late blight disease at 50 mg/l applied for 1 day prior to infection relative to untreated control.
Experiment [2] concerns Botrytis cinerea. Description: Fungicidal activity against Botryotinia fuckeliana infected cucumber assessed as reduction in cucumber gray mold disease at 50 mg/l applied for 1 day prior to infection relative to untreated control.
The subject of experiment [3] is Rhizoctonia solani. Description: Fungicidal activity against Rhizoctonia solani infected rice assessed as reduction in rice sheath blight disease at 1000 mg/l applied for 1 day prior to infection relative to untreated control.
Experiment [4] has as its system Puccinia recondita. Description: Fungicidal activity against Puccinia recondita infected wheat assessed as reduction in wheat leaf rust disease at 1000 mg/l applied for 1 day prior to infection relative to untreated control.
The subject of experiment [5] is Puccinia recondita. Description: Fungicidal activity against Puccinia recondita infected wheat assessed as reduction in wheat leaf rust disease at 500 mg/l applied for 1 day prior to infection relative to untreated control.
Experiment [6] has as its system Phytophthora infestans. Description: Fungicidal activity against Phytophthora infestans infected tomato assessed as reduction in tomato late blight disease at 1000 mg/l applied for 1 day prior to infection relative to untreated control.
The test system of experiment [7] is Rhizoctonia solani. Description: Fungicidal activity against Rhizoctonia solani infected rice assessed as reduction in rice sheath blight disease at 500 mg/l applied for 1 day prior to infection relative to untreated control.
Experiment [8] has as its system Phytophthora infestans. Description: Fungicidal activity against Phytophthora infestans infected tomato assessed as reduction in tomato late blight disease at 500 mg/l applied for 1 day prior to infection relative to untreated control.
In experiment [9] the test system is Blumeria graminis. Kind of experiment: Fungicidal activity against Blumeria graminis infected barley assessed as reduction in powdery mildew disease at 500 mg/l applied for 1 day prior to infection relative to untreated control.
The test system of experiment [10] is Pyricularia grisea. Description: Fungicidal activity against Magnaporthe grisea infected rice assessed as reduction in rice blast disease at 1000 mg/l applied for 1 day prior to infection relative to untreated control.
Experiment [11] has as its system Blumeria graminis. Description: Fungicidal activity against Blumeria graminis infected barley assessed as reduction in powdery mildew disease at 1000 mg/l applied for 1 day prior to infection relative to untreated control.
In experiment [12] the test system is Pyricularia grisea. Description: Fungicidal activity against Magnaporthe grisea infected rice assessed as reduction in rice blast disease at 500 mg/l applied for 1 day prior to infection relative to untreated control.
For experiment [13], the system named is Botrytis cinerea. Kind of experiment: Fungicidal activity against Botryotinia fuckeliana infected cucumber assessed as reduction in cucumber gray mold disease at 1000 mg/l applied for 1 day prior to infection relative to untreated control.
Experiment [14] relates to Botrytis cinerea. Description: Fungicidal activity against Botryotinia fuckeliana infected cucumber assessed as reduction in cucumber gray mold disease at 500 mg/l applied for 1 day prior to infection relative to untreated control.
In experiment [15] the test system is Botrytis cinerea. Description: Fungicidal activity against Botryotinia fuckeliana infected cucumber assessed as reduction in cucumber gray mold disease at 250 mg/l applied for 1 day prior to infection relative to untreated control.
In experiment [16] the test system is Rhizoctonia solani. Description: Fungicidal activity against Rhizoctonia solani infected rice assessed as reduction in rice sheath blight disease at 250 mg/l applied for 1 day prior to infection relative to untreated control.
Experiment [17] relates to Pyricularia grisea. Description: Fungicidal activity against Magnaporthe grise infected rice assessed as reduction in rice blast disease at 250 mg/l applied for 1 day prior to infection relative to untreated control.
The subject of experiment [18] is Puccinia recondita. Kind of experiment: Fungicidal activity against Puccinia recondita infected wheat assessed as reduction in wheat leaf rust disease at 250 mg/l applied for 1 day prior to infection relative to untreated control.
Experiment [19] concerns Phytophthora infestans. Description: Fungicidal activity against Phytophthora infestans infected tomato assessed as reduction in tomato late blight disease at 250 mg/l applied for 1 day prior to infection relative to untreated control.
Experiment [20] has as its system Blumeria graminis. Description: Fungicidal activity against Blumeria graminis infected barley assessed as reduction in powdery mildew disease at 250 mg/l applied for 1 day prior to infection relative to untreated control.

With `N#Cc1c(Cl)c(Cl)c(Cl)c(C#N)c1Cl` [CHLOROTHALONIL], the Activity in the experiment on Phytophthora infestans [1] is given as 95%.

Consider `CN(C)S(=O)(=O)N(SC(F)(Cl)Cl)c1ccccc1` [DICHLOFLUANID], for which the Activity with Botrytis cinerea [2] was 92%.

As to `C=CCc1ccc(O)c(OC)c1` [EUGENOL], the Activity in the experiment with Rhizoctonia solani [3], in the experiment on Puccinia recondita [4], in the experiment on Puccinia recondita [5], in the experiment with Phytophthora infestans [6], in the experiment with Rhizoctonia solani [7] and with Phytophthora infestans [8] was 0% in each case. Moreover, the Activity with Blumeria graminis [9] is 0%; in the experiment with Pyricularia grisea [10], 0%; in the experiment with Blumeria graminis [11], 5%; in the experiment on Pyricularia grisea [12], 0%; in the experiment with Botrytis cinerea [13], 0%; in the experiment on Botrytis cinerea [14], 0%.

Take `O=C(CCCC/C=C/c1ccc2c(c1)OCO2)N1CCCCC1` [PIPERETTINE]: the Activity in the experiment with Rhizoctonia solani [3], with Puccinia recondita [4], with Puccinia recondita [5], with Phytophthora infestans [6], in the experiment with Rhizoctonia solani [7] and with Phytophthora infestans [8] was 0% each time. Also, the Activity in the experiment with Blumeria graminis [9] is 40%; in the experiment on Pyricularia grisea [10], 0%; in the experiment with Blumeria graminis [11], 60%; in the experiment on Pyricularia grisea [12], 0%; in the experiment on Botrytis cinerea [13], 0%; in the experiment on Botrytis cinerea [14] it was 0%.

On to `O=C(/C=C/C=C/c1ccc2c(c1)OCO2)N1CCCCC1` [PIPERINE], for which the Activity with Rhizoctonia solani [3], in the experiment on Puccinia recondita [4], with Puccinia recondita [5], in the experiment with Phytophthora infestans [6], in the experiment with Rhizoctonia solani [7] and in the experiment with Phytophthora infestans [8] was 0% in each case. The Activity with Blumeria graminis [9], in the experiment with Pyricularia grisea [10], with Blumeria graminis [11], in the experiment with Pyricularia grisea [12], in the experiment on Botrytis cinerea [13] and in the experiment on Botrytis cinerea [14] was 0% in each case.

With `O=C(/C=C/CCCC/C=C/c1ccc2c(c1)OCO2)N1CCCCC1` [PIPERNONALINE], the Activity in the experiment with Rhizoctonia solani [3] was 35%; in the experiment on Puccinia recondita [4] it was 100%; in the experiment with Puccinia recondita [5] it was 91%; with Botrytis cinerea [15] it was 0%; in the experiment with Phytophthora infestans [6], 91%; in the experiment on Rhizoctonia solani [16], 0%. Further, the Activity is reported as 26% in the experiment on Pyricularia grisea [17]; 0% in the experiment on Rhizoctonia solani [7]; 80% with Phytophthora infestans [8]; 0% with Blumeria graminis [9]; 71% with Pyricularia grisea [10]; 80% with Puccinia recondita [18]. The Activity in the experiment with Blumeria graminis [11] is given as 0%; with Pyricularia grisea [12] it was 51%; with Botrytis cinerea [13], 0%; with Phytophthora infestans [19] it was 55%; in the experiment with Blumeria graminis [20], 0%; in the experiment on Botrytis cinerea [14], 0%.

On to `COc1cc(/C=C/C(=O)N2CCC=CC2=O)cc(OC)c1OC` [PIPLARTINE], for which the Activity in the experiment with Rhizoctonia solani [3], in the experiment with Puccinia recondita [4], in the experiment on Puccinia recondita [5], in the experiment on Phytophthora infestans [6], in the experiment on Rhizoctonia solani [7] and with Phytophthora infestans [8] was 0% each time. In addition, the Activity came out at 0% with Blumeria graminis [9]; 10% in the experiment with Pyricularia grisea [10]; 0% with Blumeria graminis [11]; 0% in the experiment on Pyricularia grisea [12]; 0% in the experiment on Botrytis cinerea [13]; 0% in the experiment on Botrytis cinerea [14].

The values are drawn from ChEMBL document CHEMBL3045442, “Fungicidal activity of pipernonaline, a piperidine alkaloid derived from long pepper, Piper longum L., against phytopathogenic fungi” (2001).
